Measured values taken from ChEMBL document CHEMBL1201862, “PubChem BioAssay data set” (2004).
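Test compounds were applied to cells in 96-well plates for 48 hours at 5 doses. At the GI50, growth is halved.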 The source made the active and inactive calls. Cut-off read from the data, not from the text of the source: active = GI50 up to about 1.1 µM and inactive = higher.

Columns and labels:
Assay in all cases: DTP human tumour cell line panel, 48 h
[1] = tested on: TK-10
[2] = tested on: SF-268
[3] = tested on: NCI-H23
[4] = tested on: Hs-578T
[5] = tested on: HT-29
[6] = tested on: NCI-H522
[7] = tested on: HCC 2998
[8] = tested on: UO-31
[9] = tested on: HCT-116
[10] = tested on: MCF7
[11] = tested on: COLO 205
[12] = tested on: SK-OV-3
[13] = tested on: T47D
[14] = tested on: NCI/ADR-RES
[15] = tested on: BT-549
[16] = tested on: SF-539
[17] = tested on: NCI-H226
[18] = tested on: EKVX
[19] = tested on: HL-60
[20] = tested on: CCRF-CEM

Measured: GI50

ON(CCc1ccccn1)Cc1ccccc1
inactive: [1] > 100 µM | [2] > 100 µM | [3] > 100 µM | [4] > 100 µM | [5] > 100 µM | [6] > 100 µM | [7] > 100 µM | [8] > 100 µM | [9] > 100 µM | [10] > 100 µM | [11] > 100 µM | [12] > 100 µM | [13] > 100 µM | [14] > 100 µM | [15] > 100 µM | [16] > 100 µM | [17] > 100 µM | [18] > 100 µM

N#CCCOc1cccc(C2(N3CCCCC3)CCCCC2)c1
inactive: [1] > 100 µM | [2] > 100 µM | [3] > 100 µM | [4] > 100 µM | [19] > 100 µM | [5] > 100 µM | [6] > 100 µM | [8] > 100 µM | [9] > 100 µM | [10] > 100 µM | [11] > 100 µM | [12] > 100 µM | [13] > 100 µM | [14] > 100 µM | [15] > 100 µM | [20] > 100 µM | [16] > 100 µM | [17] > 100 µM | [18] > 100 µM

COc1ccc(CNc2nc3cc(C(F)(F)F)ccc3nc2C(=O)O)cc1
inactive: [3] 24.5 µM | [5] 24 µM | [7] 31.6 µM | [8] 17.8 µM | [9] 19.2 µM | [10] 25 µM | [11] 22.5 µM | [12] 40.4 µM | [13] 25.7 µM | [14] 24.3 µM | [15] 23.3 µM | [20] 27.1 µM | [16] 23 µM | [17] 40 µM | [18] 23.6 µM

CC(ON1[C@](C)(c2ccccc2)CC[C@@]1(C)c1ccccc1)c1ccccc1 (stereo not given in full)
inactive: [1] > 100 µM | [2] 58.5 µM | [3] 40 µM | [4] 37.3 µM | [19] 23.6 µM | [5] 31.2 µM | [6] 15.3 µM | [7] 20.9 µM | [8] 37.9 µM | [9] 25.4 µM | [11] 43.4 µM | [12] > 100 µM | [13] 24.1 µM | [14] 48.2 µM | [15] 13.4 µM | [20] 22.7 µM | [16] > 100 µM | [17] 40.9 µM | [18] 23.8 µM

CC(=O)C1(/N=N/c2ccc(S(N)(=O)=O)cc2)CCOC1=O (stereo not given)
inactive: [1] > 100 µM | [2] > 100 µM | [3] > 100 µM | [4] > 100 µM | [19] 64.6 µM | [5] > 100 µM | [6] > 100 µM | [8] > 100 µM | [9] > 100 µM | [10] > 100 µM | [11] > 100 µM | [12] > 100 µM | [13] > 100 µM | [14] > 100 µM | [15] > 100 µM | [20] > 100 µM | [16] > 100 µM | [17] > 100 µM | [18] > 100 µM

COc1ccc(NC(=O)C(C#N)=C(SC)SC)cc1
inactive: [1] > 100 µM | [2] > 100 µM | [3] > 100 µM | [4] > 100 µM | [19] 75.3 µM | [5] > 100 µM | [6] 57.1 µM | [7] > 100 µM | [8] 60.3 µM | [9] > 100 µM | [10] > 100 µM | [11] > 100 µM | [12] > 100 µM | [13] > 100 µM | [15] > 100 µM | [20] > 100 µM | [16] > 100 µM | [17] > 100 µM | [18] > 100 µM

CC1=C(C(=O)NC2CCCCC2)CC(C(=O)NC2CCCCC2)=C(C)N1
inactive: [1] 39.2 µM | [2] 39.9 µM | [3] > 100 µM | [4] 24.9 µM | [19] 71.6 µM | [6] > 100 µM | [7] > 100 µM | [8] > 100 µM | [9] > 100 µM | [10] > 100 µM | [11] > 100 µM | [12] > 100 µM | [13] 58.6 µM | [15] > 100 µM | [20] > 100 µM | [16] > 100 µM | [18] > 100 µM

COc1cc(/N=C\N(C)C)c2ncccc2c1
inactive: [1] > 100 µM | [2] 66.1 µM | [3] > 100 µM | [4] 98.4 µM | [19] 26.8 µM | [5] 69.8 µM | [6] 68.9 µM | [8] 52 µM | [9] 35.2 µM | [10] 48.5 µM | [11] > 100 µM | [12] > 100 µM | [13] 78 µM | [14] 45.4 µM | [15] 37.1 µM | [20] 28 µM | [16] 33.5 µM | [17] 49.4 µM | [18] > 100 µM
